IC50 and Ki data for three molecules are collected here from ChEMBL document CHEMBL1909046, “DrugMatrix in vitro pharmacology data”.

Mitogen-activated protein kinase 1, sequence (P28482 whole entry): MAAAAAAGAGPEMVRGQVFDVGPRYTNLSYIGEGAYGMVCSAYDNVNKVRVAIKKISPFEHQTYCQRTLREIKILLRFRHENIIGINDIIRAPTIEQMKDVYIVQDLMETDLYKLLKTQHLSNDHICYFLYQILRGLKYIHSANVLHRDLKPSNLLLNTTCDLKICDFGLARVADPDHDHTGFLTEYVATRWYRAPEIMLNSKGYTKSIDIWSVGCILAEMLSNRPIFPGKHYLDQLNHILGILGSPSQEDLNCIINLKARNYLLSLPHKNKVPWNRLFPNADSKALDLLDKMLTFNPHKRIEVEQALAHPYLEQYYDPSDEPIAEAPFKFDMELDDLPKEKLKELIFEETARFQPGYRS

Test system in one assay: not listed separately
The assay is described as follows: DRUGMATRIX: Glutamate, NMDA, Phencyclidine radioligand binding (ligand: [3H] TCP). To be noted: Not Active = under 50% inhibition at 10 µM. It is filed as cell membranes, Rattus norvegicus, Wistar, Cerebral cortex, Membrane.
Regarding `COCc1c(C(C)C)nc(C(C)C)c(/C=C/[C@@H](O)C[C@@H](O)CC(=O)O)c1-c1ccc(F)cc1` [CERIVASTATIN], the IC50 result is listed as “Not Active” and the Ki entry was “Not Active”.
As to CISPLATIN, the IC50 result is on record as “Not Active” and the Ki result is on record as “Not Active”.
As to `CN1CCC[C@H]1c1cccnc1` [NICOTINE], the IC50 entry is listed as “Not Active” and the Ki entry is given as “Not Active”.

Another assay concerns the target Mitogen-activated protein kinase 1 (Homo sapiens, UniProt P28482). As to the kind of experiment: DRUGMATRIX: Protein Serine/Threonine Kinase, ERK2 enzyme inhibition (substrate: Myelin Basic Protein). The following applies: Not Active = under 50% inhibition at 10 µM. Also on record: species or system Escherichia coli.
In the case of `COCc1c(C(C)C)nc(C(C)C)c(/C=C/[C@@H](O)C[C@@H](O)CC(=O)O)c1-c1ccc(F)cc1` [CERIVASTATIN], the IC50 result is recorded as “Not Active”.
Take CISPLATIN: the IC50 entry is “Not Active” and the Ki result is on record as “Not Active”.
As for `CN1CCC[C@H]1c1cccnc1` [NICOTINE], the IC50 result is “Not Active”.

A further assay addresses T1, Adenosine receptor A1 (Homo sapiens, UniProt P30542).
T1 sequence (P30542 whole entry): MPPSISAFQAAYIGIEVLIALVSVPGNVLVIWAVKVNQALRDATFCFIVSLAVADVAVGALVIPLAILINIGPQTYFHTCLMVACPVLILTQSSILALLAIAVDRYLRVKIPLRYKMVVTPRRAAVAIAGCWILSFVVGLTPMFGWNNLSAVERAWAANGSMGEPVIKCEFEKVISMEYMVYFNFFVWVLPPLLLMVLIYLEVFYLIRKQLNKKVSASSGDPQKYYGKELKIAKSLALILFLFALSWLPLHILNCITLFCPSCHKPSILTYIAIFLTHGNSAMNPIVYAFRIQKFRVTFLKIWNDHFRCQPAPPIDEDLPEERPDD
Assay: not given
Type of assay: cell membranes, CHO, Membrane. To be noted: cho.
Turning to `COCc1c(C(C)C)nc(C(C)C)c(/C=C/[C@@H](O)C[C@@H](O)CC(=O)O)c1-c1ccc(F)cc1` [CERIVASTATIN], the IC50 entry was “Not Active”.
As to CISPLATIN, the IC50 entry is given as “Not Active” and the Ki result was “Not Active”.
For the molecule `CN1CCC[C@H]1c1cccnc1` [NICOTINE], the IC50 entry was “Not Active”.

In a further assay the target is D(3) dopamine receptor (Homo sapiens, UniProt P35462). The assay is described as follows: DRUGMATRIX: Dopamine D3 radioligand binding (ligand: [3H] Spiperone). Type of assay: cell membranes, CHO, Membrane. The following applies: cho.
D(3) dopamine receptor, sequence (P35462 whole entry): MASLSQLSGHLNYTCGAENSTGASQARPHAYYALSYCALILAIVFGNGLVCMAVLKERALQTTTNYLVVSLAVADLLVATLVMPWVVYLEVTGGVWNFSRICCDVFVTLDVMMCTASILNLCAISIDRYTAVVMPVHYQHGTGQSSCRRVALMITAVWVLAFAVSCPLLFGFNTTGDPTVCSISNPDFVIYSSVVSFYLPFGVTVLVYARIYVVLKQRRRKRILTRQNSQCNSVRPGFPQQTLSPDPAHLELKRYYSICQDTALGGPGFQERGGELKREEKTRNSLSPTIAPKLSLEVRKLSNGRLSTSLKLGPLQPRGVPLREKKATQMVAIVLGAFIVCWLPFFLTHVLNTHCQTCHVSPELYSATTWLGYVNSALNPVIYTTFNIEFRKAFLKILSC
For `COCc1c(C(C)C)nc(C(C)C)c(/C=C/[C@@H](O)C[C@@H](O)CC(=O)O)c1-c1ccc(F)cc1` [CERIVASTATIN], the IC50 result is “Not Active”.
In the case of CISPLATIN, the IC50 result was “Not Active” and the Ki result is on record as “Not Active”.
`CN1CCC[C@H]1c1cccnc1` [NICOTINE]: the concentration for half-maximal inhibition (IC50) result was “Not Active”.

Another assay deals with T2, Interstitial collagenase (Homo sapiens, UniProt P03956).
T2 sequence (P03956 whole entry): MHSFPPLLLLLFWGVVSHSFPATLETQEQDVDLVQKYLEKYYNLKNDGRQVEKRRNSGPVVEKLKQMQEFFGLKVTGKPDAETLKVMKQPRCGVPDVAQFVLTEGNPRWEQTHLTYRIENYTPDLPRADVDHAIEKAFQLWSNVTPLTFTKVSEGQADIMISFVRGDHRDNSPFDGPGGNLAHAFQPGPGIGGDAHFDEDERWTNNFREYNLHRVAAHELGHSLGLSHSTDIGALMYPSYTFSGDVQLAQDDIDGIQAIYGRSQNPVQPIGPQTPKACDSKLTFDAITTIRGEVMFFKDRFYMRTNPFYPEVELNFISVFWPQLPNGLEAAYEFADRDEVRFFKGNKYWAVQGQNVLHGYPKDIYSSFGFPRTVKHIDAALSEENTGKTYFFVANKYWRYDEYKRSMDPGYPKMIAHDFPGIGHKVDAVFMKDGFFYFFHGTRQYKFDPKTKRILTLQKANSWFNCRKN
Assay: not given
Type of assay: tissue-based, Rheumatoid synovial fibroblasts.
Settings: not given
`COCc1c(C(C)C)nc(C(C)C)c(/C=C/[C@@H](O)C[C@@H](O)CC(=O)O)c1-c1ccc(F)cc1` [CERIVASTATIN]: the IC50 entry is reported as “Not Active”.
CISPLATIN: the IC50 entry is “Not Active” and the Ki entry is listed as “Not Active”.
As for `CN1CCC[C@H]1c1cccnc1` [NICOTINE], the IC50 entry is reported as “Not Active”.

Another assay deals with Melanocortin receptor 3 (Homo sapiens, UniProt P41968).
Melanocortin receptor 3, sequence (P41968 whole entry): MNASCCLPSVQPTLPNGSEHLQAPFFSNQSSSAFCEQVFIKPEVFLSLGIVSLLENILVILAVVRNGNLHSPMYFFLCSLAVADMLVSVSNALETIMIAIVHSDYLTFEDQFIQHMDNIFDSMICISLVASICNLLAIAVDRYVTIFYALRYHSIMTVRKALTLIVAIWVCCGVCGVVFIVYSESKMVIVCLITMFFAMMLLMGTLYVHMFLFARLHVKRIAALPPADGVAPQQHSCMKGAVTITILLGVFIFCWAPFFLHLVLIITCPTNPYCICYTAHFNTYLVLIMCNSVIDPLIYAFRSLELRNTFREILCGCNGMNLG
Assay: not given
Type of assay: cell membranes, Membrane. The following applies: hek293.
For the molecule `COCc1c(C(C)C)nc(C(C)C)c(/C=C/[C@@H](O)C[C@@H](O)CC(=O)O)c1-c1ccc(F)cc1` [CERIVASTATIN], the IC50 result is listed as “Not Active”.
On to CISPLATIN, for which the IC50 entry is on record as “Not Active” and the Ki result is reported as “Not Active”.
In the case of `CN1CCC[C@H]1c1cccnc1` [NICOTINE], the IC50 result is reported as “Not Active”.

In a further assay the target is Prostaglandin G/H synthase 1 (Homo sapiens, UniProt P23219). As to the kind of experiment: biochemical. Type of assay: tissue-based, Platelet. The following applies: platelet.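 Also: inhibition of COX-1 enzyme activity, with arachidonic acid supplied as substrate; in other assays of this panel Not Active means under 50% inhibition at 10 µM.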
Prostaglandin G/H synthase 1, sequence (P23219 whole entry): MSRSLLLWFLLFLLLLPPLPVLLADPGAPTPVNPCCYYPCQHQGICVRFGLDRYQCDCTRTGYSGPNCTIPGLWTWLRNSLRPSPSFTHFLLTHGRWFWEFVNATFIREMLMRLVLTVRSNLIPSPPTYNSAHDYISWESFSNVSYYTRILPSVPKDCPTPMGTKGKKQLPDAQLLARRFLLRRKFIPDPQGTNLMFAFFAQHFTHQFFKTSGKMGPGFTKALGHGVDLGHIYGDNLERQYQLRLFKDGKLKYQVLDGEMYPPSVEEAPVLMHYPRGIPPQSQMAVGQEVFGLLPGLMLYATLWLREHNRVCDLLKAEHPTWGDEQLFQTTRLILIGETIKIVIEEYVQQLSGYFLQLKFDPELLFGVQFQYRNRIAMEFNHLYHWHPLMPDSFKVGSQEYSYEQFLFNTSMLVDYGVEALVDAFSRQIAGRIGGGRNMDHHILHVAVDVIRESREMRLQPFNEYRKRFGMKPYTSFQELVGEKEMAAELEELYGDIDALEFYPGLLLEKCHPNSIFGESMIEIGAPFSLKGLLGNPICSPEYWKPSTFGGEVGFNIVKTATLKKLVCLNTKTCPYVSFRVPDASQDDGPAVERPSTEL
In the case of `COCc1c(C(C)C)nc(C(C)C)c(/C=C/[C@@H](O)C[C@@H](O)CC(=O)O)c1-c1ccc(F)cc1` [CERIVASTATIN], the IC50 result was “Not Active”.
Regarding CISPLATIN, the half-maximal inhibitory concentration (IC50) entry is reported as “Not Active” and the Ki result is reported as “Not Active”.
Turning to `CN1CCC[C@H]1c1cccnc1` [NICOTINE], the IC50 result is “Not Active”.

The next assay has as its target T3, 3-hydroxy-3-methylglutaryl-coenzyme A reductase (Homo sapiens, UniProt P04035).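 Also: enzyme inhibition assay of HMG-CoA reductase using radiolabeled [14C]HMG-CoA as substrate; in other assays of this panel Not Active means under 50% inhibition at 10 µM.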
T3 sequence (P04035 whole entry): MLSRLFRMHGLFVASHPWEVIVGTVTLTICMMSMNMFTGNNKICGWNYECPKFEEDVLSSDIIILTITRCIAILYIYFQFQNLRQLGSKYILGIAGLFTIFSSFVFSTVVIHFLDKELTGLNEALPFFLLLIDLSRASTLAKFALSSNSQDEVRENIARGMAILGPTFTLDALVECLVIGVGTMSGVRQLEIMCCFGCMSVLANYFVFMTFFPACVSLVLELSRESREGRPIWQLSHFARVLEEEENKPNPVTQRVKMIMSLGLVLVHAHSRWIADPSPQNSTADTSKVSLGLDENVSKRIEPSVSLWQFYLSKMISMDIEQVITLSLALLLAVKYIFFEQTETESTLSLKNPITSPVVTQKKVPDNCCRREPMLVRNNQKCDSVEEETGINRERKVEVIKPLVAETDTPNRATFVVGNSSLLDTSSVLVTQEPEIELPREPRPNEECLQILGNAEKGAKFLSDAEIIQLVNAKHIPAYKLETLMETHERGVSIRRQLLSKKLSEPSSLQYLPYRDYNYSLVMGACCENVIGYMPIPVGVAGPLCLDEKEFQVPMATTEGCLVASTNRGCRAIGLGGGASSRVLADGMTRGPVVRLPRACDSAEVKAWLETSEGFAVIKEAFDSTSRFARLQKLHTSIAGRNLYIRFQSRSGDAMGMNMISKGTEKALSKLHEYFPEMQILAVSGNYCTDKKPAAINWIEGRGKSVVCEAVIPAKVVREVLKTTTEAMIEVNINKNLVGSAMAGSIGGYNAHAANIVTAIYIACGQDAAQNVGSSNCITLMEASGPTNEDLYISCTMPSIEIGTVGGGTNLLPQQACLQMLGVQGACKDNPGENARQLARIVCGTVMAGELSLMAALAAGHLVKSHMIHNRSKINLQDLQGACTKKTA
Assay: not given
Also noted: species or system Escherichia coli.
Settings: not given
Regarding CISPLATIN, the IC50 result is listed as “Not Active” and the Ki entry is “Not Active”.
As for `CN1CCC[C@H]1c1cccnc1` [NICOTINE], the IC50 result is recorded as “Not Active”.

Staying with this assay, now noted: read-out: IC50.
Regarding `COCc1c(C(C)C)nc(C(C)C)c(/C=C/[C@@H](O)C[C@@H](O)CC(=O)O)c1-c1ccc(F)cc1` [CERIVASTATIN], the half-inhibitory concentration (IC50) stood at 0.085 nM.

The next assay deals with Platelet-activating factor receptor (Homo sapiens, UniProt P25105). As to the kind of experiment: biochemical. Type of assay: tissue-based. The following applies: platelet.
Platelet-activating factor receptor, sequence (P25105 whole entry): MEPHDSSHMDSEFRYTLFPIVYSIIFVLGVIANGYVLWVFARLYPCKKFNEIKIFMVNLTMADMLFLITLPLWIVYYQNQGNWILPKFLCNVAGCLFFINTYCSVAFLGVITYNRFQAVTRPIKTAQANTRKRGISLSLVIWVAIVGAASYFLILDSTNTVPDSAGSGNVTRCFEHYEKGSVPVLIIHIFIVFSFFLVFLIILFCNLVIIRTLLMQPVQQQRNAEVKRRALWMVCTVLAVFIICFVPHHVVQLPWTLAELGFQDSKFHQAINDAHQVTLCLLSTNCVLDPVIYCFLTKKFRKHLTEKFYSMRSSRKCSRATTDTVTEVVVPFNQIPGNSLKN
Regarding `COCc1c(C(C)C)nc(C(C)C)c(/C=C/[C@@H](O)C[C@@H](O)CC(=O)O)c1-c1ccc(F)cc1` [CERIVASTATIN], the IC50 result is “Not Active”.
As to CISPLATIN, the IC50 result is on record as “Not Active” and the Ki result is reported as “Not Active”.
With `CN1CCC[C@H]1c1cccnc1` [NICOTINE], the IC50 entry is on record as “Not Active”.

Test system in a further assay: not listed separately
As to the kind of experiment: DRUGMATRIX: Phosphodiesterase PDE4 enzyme inhibition (substrate: [3H]cAMP + cAMP). The following applies: u-937; Not Active = under 50% inhibition at 10 µM.
With `COCc1c(C(C)C)nc(C(C)C)c(/C=C/[C@@H](O)C[C@@H](O)CC(=O)O)c1-c1ccc(F)cc1` [CERIVASTATIN], the IC50 result is listed as “Not Active” and the Ki result is on record as “Not Active”.
Regarding CISPLATIN, the IC50 entry is “Not Active” and the Ki entry is “Not Active”.
As for `CN1CCC[C@H]1c1cccnc1` [NICOTINE], the IC50 result is listed as “Not Active” and the Ki entry is “Not Active”.

The next assay concerns the target T4, Alpha-1D adrenergic receptor (Homo sapiens, UniProt P25100). Also: in other assays of this panel Not Active means under 50% inhibition at 10 µM.
T4 sequence (P25100 whole entry): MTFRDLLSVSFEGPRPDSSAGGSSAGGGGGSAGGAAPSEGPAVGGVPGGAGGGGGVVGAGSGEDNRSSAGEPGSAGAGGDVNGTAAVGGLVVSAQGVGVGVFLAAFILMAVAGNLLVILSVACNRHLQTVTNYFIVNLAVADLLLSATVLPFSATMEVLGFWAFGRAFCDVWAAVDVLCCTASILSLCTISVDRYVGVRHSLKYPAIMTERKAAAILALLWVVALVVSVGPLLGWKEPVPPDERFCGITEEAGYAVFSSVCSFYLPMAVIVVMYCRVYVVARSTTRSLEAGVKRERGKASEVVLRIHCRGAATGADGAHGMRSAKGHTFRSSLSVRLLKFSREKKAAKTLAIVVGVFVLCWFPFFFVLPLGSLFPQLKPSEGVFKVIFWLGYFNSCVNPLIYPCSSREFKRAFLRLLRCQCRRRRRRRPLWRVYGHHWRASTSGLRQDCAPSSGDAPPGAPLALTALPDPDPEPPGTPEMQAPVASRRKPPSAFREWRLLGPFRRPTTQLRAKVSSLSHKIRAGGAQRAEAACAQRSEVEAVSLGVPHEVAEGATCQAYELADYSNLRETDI
Assay: not given
It is filed as cell membranes, HEK293, Membrane. To be noted: hek293.
On to `COCc1c(C(C)C)nc(C(C)C)c(/C=C/[C@@H](O)C[C@@H](O)CC(=O)O)c1-c1ccc(F)cc1` [CERIVASTATIN], for which the IC50 result is given as “Not Active”.
Consider CISPLATIN, for which the IC50 result is listed as “Not Active” and the Ki result was “Not Active”.
On to `CN1CCC[C@H]1c1cccnc1` [NICOTINE], for which the IC50 result is listed as “Not Active”.

Test system in another assay: not listed separately
As to the kind of experiment: DRUGMATRIX: Calcium Channel Type L, Phenylalkylamine radioligand binding (ligand: [3H] (-)-Desmethoxyverapamil (D-888)). Type of assay: cell membranes, Rattus norvegicus, Wistar, Brain, Membrane. To be noted: Not Active = under 50% inhibition at 10 µM.
`COCc1c(C(C)C)nc(C(C)C)c(/C=C/[C@@H](O)C[C@@H](O)CC(=O)O)c1-c1ccc(F)cc1` [CERIVASTATIN]: the IC50 result is reported as “Not Active” and the Ki entry was “Not Active”.
As to CISPLATIN, the IC50 result was “Not Active” and the Ki result is reported as “Not Active”.
Turning to `CN1CCC[C@H]1c1cccnc1` [NICOTINE], the IC50 result is listed as “Not Active” and the Ki result is recorded as “Not Active”.

Test system in another assay: not listed separately
As to the kind of experiment: DRUGMATRIX: Glutamate, NMDA, Agonism radioligand binding (ligand: [3H] CGP-39653). Type of assay: cell membranes, Rattus norvegicus, Wistar, Cerebral cortex, Membrane. To be noted: Not Active = under 50% inhibition at 10 µM.
Consider `COCc1c(C(C)C)nc(C(C)C)c(/C=C/[C@@H](O)C[C@@H](O)CC(=O)O)c1-c1ccc(F)cc1` [CERIVASTATIN], for which the concentration for half-maximal inhibition (IC50) entry is reported as “Not Active” and the Ki result was “Not Active”.
On to CISPLATIN, for which the IC50 result is listed as “Not Active” and the Ki result is recorded as “Not Active”.
Regarding `CN1CCC[C@H]1c1cccnc1` [NICOTINE], the half-maximal inhibitory concentration (IC50) entry is “Not Active” and the Ki result is “Not Active”.
